In patent US9913843B2, “Protein kinase C inhibitors and uses thereof” (Rigel Pharmaceuticals, Inc., priority 2012, dated 2018):
Read-outs that look alike come from different tables or passages of the source.

Test system: PKC mediated IL-2 production in human primary T cells
Assay: IL-2 ELISA, human primary T cell, anti CD3+CD28+ (whole cell functional assay for PKC mediated IL-2 production)
Type: cell-based
Method in brief: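 IL-2 in supernatants was quantified by ELISA after 24 h at 37 °C. Before stimulation with plate-coated anti-CD3 (1 μg/ml) and anti-CD28 (5 μg/ml), T cells expanded from PBMC were exposed to compound for 1 h; the counter-screen replaced antibodies with PMA 0.5 ng/ml and ionomycin 0.1 μM (final).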

[1] = 24 h, human primary T cells stimulated with anti-CD3 + anti-CD28, IL-2 by ELISA, read-out: IC50 for blocking IL-2 production
[2] = human primary T cells stimulated with anti-CD3 + anti-CD28, 24 h, IL-2 by ELISA, 8 pt, read-out: IL2 ELISA, Human primary T cell, anti-CD3 + CD28, 8 pt (IC50)

SMILES	IC50 [1]	IC50 [2]
CN(C)c1cnc(Nc2cccc(C#N)c2)nc1NC[C@@H]1CCCN2CCCC[C@H]12 [Compound 92, 3-(4-(((1S,9aR)-octahydro-1H-quinolizin-1-yl)methylamino)-5-(dimethylamino)pyrimidin-2-ylamino)benzonitrile]	< 30 µM	9.46 µM
Cc1ccc(Nc2ncc(N(C)C)c(NC[C@@H]3CCCN4CCCC[C@H]34)n2)cc1C#N [Compound 93, 5-(4-(((1S,9aR)-octahydro-1H-quinolizin-1-yl)methylamino)-5-(dimethylamino)pyrimidin-2-ylamino)-2-methylbenzonitrile]	< 30 µM	3.92 µM
CN(C)c1cnc(Nc2ccc(C3CC3)c(C#N)c2)nc1NC[C@@H]1CCCN2CCCC[C@H]12 [Compound 94, 5-(4-(((1S,9aR)-octahydro-1H-quinolizin-1-yl)methylamino)-5-(dimethylamino)pyrimidin-2-ylamino)-2-cyclopropylbenzonitrile]	< 30 µM	2.57 µM
CN(C)c1cnc(Nc2cc(C#N)c(C3CC3)cc2F)nc1NC[C@@H]1CCCN2CCCC[C@H]12 [Compound 95, 5-(4-(((1S,9aR)-octahydro-1H-quinolizin-1-yl)methylamino)-5-(dimethylamino)pyrimidin-2-ylamino)-2-cyclopropyl-4-fluorobenzonitrile]	< 30 µM	1.74 µM
COc1cc(Nc2ncc(N(C)C)c(NC[C@@H]3CCCN4CCCC[C@H]34)n2)cc(OC)c1 [Compound 96, N4-(((1S,9aR)-octahydro-1H-quinolizin-1-yl)methyl)-N2-(3,5-dimethoxyphenyl)-N5,N5-dimethylpyrimidine-2,4,5-triamine]	< 30 µM	4.98 µM
CN(C)c1cnc(Nc2ccc3oc(=O)[nH]c3c2)nc1NC[C@@H]1CCCN2CCCC[C@H]12 [Compound 97, 5-(4-(((1S,9aR)-octahydro-1H-quinolizin-1-yl)methylamino)-5-(dimethylamino)pyrimidin-2-ylamino)benzo[d]oxazol-2(3H)-one]	< 30 µM	5.41 µM
CC1(C)Oc2ccc(Nc3ncc(F)c(NC[C@@H]4CCCN5CCCC[C@H]45)n3)cc2-n2nnnc21 [Compound 98, N2-(4,4-dimethyl-4H-5-oxa-1,2,3,9b-tetraaza-cyclopenta[a]naphthalen-8-yl)-5-fluoro-N4-(((1S,9aR)-octahydro-1H-quinolizin-1-yl)methyl)-pyrimidine-2,4-diamine]	< 30 µM	0.0774 µM
Cn1nnn(-c2cc(Nc3ncc(C#N)c(NC[C@@H]4CCCN5CCCC[C@H]45)n3)c(F)cc2C2CC2)c1=O [Compound 99, 4-(((1S,9aR)-octahydro-1H-quinolizin-1-yl)methylamino)-2-(4-cyclopropyl-2-fluoro-5-(4,5-dihydro-4-methyl-5-oxotetrazol-1-yl)phenylamino)pyrimidine-5-carbonitrile]	< 30 µM	0.0509 µM
Fc1cc(C2CC2)c(-n2cnnn2)cc1Nc1ncc(C(F)(F)F)c(NC[C@@H]2CCCN3CCCC[C@H]23)n1 [Compound 100, N2-(4-cyclopropyl-2-fluoro-5-(1H-tetrazol-1-yl)phenyl)-5-(trifluoromethyl)-N4-(((1S,9aR)-octahydro-1H-quinolizin-1-yl)methyl)pyrimidine-2,4-diamine]	< 30 µM	4.21 µM
Cc1ccc(Nc2ncc(C(F)(F)F)c(NC[C@@H]3CCCN4CCCC[C@H]34)n2)cc1-n1cnnn1 [Compound 101, 5-(trifluoromethyl)-N4-(((1S,9aR)-octahydro-1H-quinolizin-1-yl)methyl)-N2-(4-methyl-3-(1H-tetrazol-1-yl)phenyl)pyrimidine-2,4-diamine]	< 30 µM	10.7 µM
Cn1nnn(-c2cc(Nc3ncc(C(F)(F)F)c(NC[C@@H]4CCCN5CCCC[C@H]45)n3)c(F)cc2C2CC2)c1=O [Compound 102, 1-(5-(4-(((1S,9aR)-octahydro-1H-quinolizin-1-yl)methylamino)-5-(trifluoromethyl)pyrimidin-2-ylamino)-2-cyclopropyl-4-fluorophenyl)-4-methyl-1H-tetrazol-5(4H)-one]	< 30 µM	12.6 µM
